Experimental data from patent US11548925B2, “CACNA1H-derived tumor antigen polypeptide and use thereof” (Genoimmune Therapeutics Co., Ltd., priority 2016, dated 2023).

Tests used:
[1] = system: H2087-TLISSLMPI (SEQ ID NO: 2) subcutaneous tumor; assay: DC peptide vaccine in H2087-[…] subcutaneous tumor model; assay type: in vivo, NOD/SCID mice; conditions: DC loaded with peptide, intracutaneous, 2 injections; vs DC loaded with wild-type peptide
Experimental: (§1) 600-900 ml of anticoagulated peripheral blood was collected from healthy volunteers for isolating peripheral blood mononuclear cells (PBMCs) via Ficoll. Cells were collected for use. 2×10^7 PBMCs per 0.5 ml was intraperitoneally injected into each of 300 NOD SCID mice without immune leakage to perform human immune reconstitution in NOD SCID mice. After 4 weeks, the mice were selected to be inoculated with the human lung cancer cell line.
The human non-small cell lung adenocarcinoma cell line H2087-[…] (SEQ ID NO: 2) as established in Example 7 was cultured in DMEM medium containing 10% fetal bovine serum, 100 U/mL penicillin and 100 U/mL streptomycin in an incubator at 37° C., 5% CO2. H2087-[…] […] The long diameter a and the short diameter b of the tumor were measured with a vernier caliper every 2-3 days and the size of the tumor was calculated as a*b*b/2. The mice and tumors were weighed and recorded every day. […] The tumor volume and the survival rate of mice were recorded every 2 days. […]
Tumor-bearing mice were randomly divided into 7 groups: DC loaded with wild-type peptide group, DC loaded with the mutant peptide […] […] After injection, vital signs of the mice were observed, and the vertical and horizontal dimensions of tumors were measured with a vernier caliper every two days. Tumor volume was calculated as follows: tumor volume=½×length×width^2. […]

[2] = system: H2087-TLISSLMPI (SEQ ID NO: 2) subcutaneous tumor; assay: Peptide + Freund's adjuvant vaccine in H2087-[…] subcutaneous tumor model; assay type: in vivo, NOD/SCID mice; conditions: peptide 100 μg/mouse + Freund's adjuvant s.c., 4 immunizations; vs adjuvant alone and wild-type peptide
Experimental: as §1
The human non-small cell lung adenocarcinoma cell line H2087-[…] (SEQ ID NO: 2) as established in Example 7 was cultured in DMEM medium containing 10% fetal bovine serum, 100 U/mL penicillin and 100 U/mL streptomycin in an incubator at 37° C., 5% CO2. H2087-[…] (SEQ ID NO: 2) tumor cells were collected, centrifuged at 1500 rpm for 5 min, and washed 3 times with sterile physiological saline. The tumor cells were diluted appropriately. […] The long diameter a and the short diameter b of the tumor were measured with a vernier caliper every 2-3 days and the size of the tumor was calculated as a*b*b/2. The mice and tumors were weighed and recorded every day. […] The tumor volume and the survival rate of mice were recorded every 2 days.
The H2087-[…] […] The longest diameter (a) and the shortest diameter (b) of a tumor were measured with a vernier caliper every 2 days. Tumor volume was calculated as: ½×length×width^2. […]

Question: With “TLISSLMPI [tumor antigen peptide from CACNA1H mutation, position 1428 arginine to methionine]” as the sequence, how does the “Survival period of mice” value [1] read?
Answer: The value was “significantly prolonged survival period of mice”.

Question: And the Tumor growth [1]?
Answer: Its Tumor growth is “slowed down tumor growth in mice”.

Question: What about the “Survival period of mice” value [2] of the same sequence?
Answer: The value was “prolonged the survival period of mice”.

Question: And the Tumor growth [2]?
Answer: Its Tumor growth is “effectively inhibited tumor growth”.
